Data as given in patent publication US11311633B2, “Satiation peptides for weight loss and altered taste sensitivity” (University of Florida Research Foundation, Incorporated, priority 2016, dated 2022).

What was measured:
mice [1] = assay: Exendin-4 oral spray prior to meals, food intake; type: in vivo
Source text: PYY and GLP-1 are both produced in […] L-cells and secreted simultaneously into the blood stream in response to nutrient uptake. […] Similarly, a decrease in food intake of mice given Exendin-4 (Ex-4), a GLP-1 analog, in the form of an oral spray prior to meals was observed. Both of these peptides individually modulate body weight, we have evidence that, when used in combination, PYY and Ex-4 may have a synergistic effect on modulation of body weight.

mice [2] = assay: PYY mouth spray, food intake after 24 hours fasting; type: in vivo
Procedure: FIGS. 4A-4D depict the effects of Peptide YY Mouth Spray.
Synthetic PYY was purchased from Bachem, Inc USA (Cat #H-6042) and diluted in sterile H2O. Sterile un-used perfume sample vials (Saphora) were utilized to administer PYY in the form of a mouth spray. It was estimated that the volume of one spray approximates to about […].
Mice were conditioned three times to 24 hours fasting starting at the beginning of the dark cycle and ending at the end of the light cycle. At the end of the fasting cycle and as a part of conditioned routine, a sterile water spray had been administered into the mouth. All the experiments were done during the first hour of the dark cycle after fasting. Once the dark cycle started, mice were sprayed once with either PYY or sterile H2O in a total volume of […] per spray. After the treatment, mice were returned to their cages and ten minutes later pre-weighted chow was provided. One hour later, the amount of consumed chow had been recorded by measuring the leftover amount. When the experiments were repeated, mice were fasted only once a week with the control and experimental groups rotated.

## Exendin-4
Mice [1]
  food intake: decrease

## PYY: Synthetic PYY purchased from Bachem (Cat #H-6042), diluted in sterile H2O, given as mouth spray [Peptide YY]
Mice [2]; after PYY mouth spray vs sterile H2O
  overall 24 hr period FI, experimental vs control group: similar
Mice [2]; mouth spray, FI measured after one hour
  PYY dose response effect to FI: significant
Mice [2]; one mouth spray, 5 μg per 100 g of body weight, after 24 hours fasting, average
  less food consumed in one hour compared to control group sprayed with H2O: 15%
